Source: patent US11033577B2, “Polymer conjugate of hexa-coordinated platinum complex” (priority 2015, dated 2021)

Experiment: Body weight of mice in Antitumor Test 3
Assay type: in vivo
Conditions: caudal vein
Description: Human stomach cancer 4-1ST was collected subcutaneously from a nude mouse and was cut into blocks each measuring about 3 mm on each side. The tumor blocks thus obtained were transplanted subcutaneously on the dorsal side of nude mice using a trocar. On the 20th day after transplantation, where the average tumor volume had reached about 100 to 200 mm^3, various drugs were administered through the caudal vein. The use and dose (in terms of drug) of the various administered drugs are as follows. In regard to the Example 7 compound, the compound was dissolved in a 5% glucose injectable solution, and the solution was administered once at a dose of 15 mg/kg or 7.5 mg/kg. In regard to the Example 16 compound, the compound was dissolved in a 5% glucose injectable solution, and the solution was administered once at a dose of 30 mg/kg or 15 mg/kg. As a control drug, l-OHP was administered once at a dose of 18 mg/kg or 9 mg/kg, and cisplatin was administered once at a dose of 10 mg/kg. Regarding the amounts of administration of l-OHP and cisplatin and the high amounts of administration of the various Example compounds, the maximum tolerable doses (MTD doses) were employed for all of the compounds. After the administration, the major axis (L) and the minor axis (W) of the tumor were measured over time using calipers, and the tumor volume (L×W×W×0.5) was calculated. The test was performed by employing four animals per group for all of a non-administered group as well as various drug-administered groups. During the period from the initiation of administration to the 21st day after administration, the relative tumor volume (T/C (%)) of each drug-administered group based on the relative tumor volume of a non-drug-administered group as 100 was calculated by the following formula as an index for the antitumor effect. T/C(%)=Relative tumor volume of administered group/relative tumor volume of non-administered group×100 Formula: […]
After the administration, the body weights of the mice were measured over time. During the period from the initiation of administration to the 21st day after administration, the changes in the relative body weight based on the body weight on the day of initiation of administration as 1 are presented in Table 7.

O=C1[O][Pt]2([NH][C@@H]3CCCC[C@H]3[NH]2)[O]C1=O [l-OHP, oxaliplatin]
Relative body weight in numbers of days after administration (9 mg/kg once, day 0): 1.00
Relative body weight in numbers of days after administration (9 mg/kg once, day 4): 0.96
Relative body weight in numbers of days after administration (9 mg/kg once, day 7): 1.00
Relative body weight in numbers of days after administration (9 mg/kg once, day 11): 1.01
Relative body weight in numbers of days after administration (9 mg/kg once, day 14): 1.02
Relative body weight in numbers of days after administration (9 mg/kg once, day 18): 1.02
Relative body weight in numbers of days after administration (9 mg/kg once, day 21): 1.02
Relative body weight in numbers of days after administration (18 mg/kg once, day 0): 1.00
Relative body weight in numbers of days after administration (18 mg/kg once, day 4): 0.85
Relative body weight in numbers of days after administration (18 mg/kg once, day 7): 0.89
Relative body weight in numbers of days after administration (18 mg/kg once, day 11): 0.98
Relative body weight in numbers of days after administration (18 mg/kg once, day 14): 1.01
Relative body weight in numbers of days after administration (18 mg/kg once, day 18): 1.02
Relative body weight in numbers of days after administration (18 mg/kg once, day 21): 1.04
